The record followed here is ChEMBL document CHEMBL1201862, “PubChem BioAssay data set” (2004).

Test systems include NCI-H226; OVCAR-8; HCT-15; MOLT-4; RXF 393; UACC-62; MCF7; MDA-MB-231; CAKI-1; Hs-578T; OVCAR-4; SK-MEL-2; A549; MDA-MB-435; NCI-H23; UACC-257; SW-620; MDA-N; SN12C; SK-MEL-28.
Holding throughout (experiment): NCI-60 cell line screen, 48 h

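A five-concentration, 48-hour dose response in 96-well plates underlies each endpoint, interpolated linearly between surrounding concentrations. At the GI50, growth is halved.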 The source made the active and inactive calls. Cut-off read from the data, not from the text of the source: active = GI50 up to about 1.1 µM and inactive = higher.

Take `CCOC(=O)c1nc2ccc(C(F)(F)F)cc2nc1NCc1ccc(OC)c(OC)c1`: the GI50 in the assay on NCI-H226 is 63.5 µM (inactive); in the assay with OVCAR-8 it was 80.4 µM (inactive); in the assay on HCT-15 it was 69 µM; in the assay with MOLT-4, 34.9 µM (inactive); with RXF 393, 43.6 µM (inactive); in the assay with UACC-62, 73.6 µM (inactive). The GI50 with MCF7 was 37.7 µM (inactive); in the assay with MDA-MB-231 it was > 100 µM (inactive); with CAKI-1, > 100 µM (inactive); with Hs-578T, 42.8 µM (inactive); in the assay with OVCAR-4, 73.5 µM (inactive); with SK-MEL-2, 24.2 µM (inactive). The GI50 with A549 was 50.2 µM (inactive); in the assay with MDA-MB-435 it was 50.1 µM (inactive); in the assay with NCI-H23 it was 72.8 µM (inactive); in the assay on UACC-257, 61.4 µM (inactive); in the assay on SW-620, 49.7 µM (inactive); in the assay on MDA-N it was 51.3 µM (inactive).
As to `ClC(Cl)(Cl)C1CCOC1n1nc2ccccc2n1` (centres undefined), the GI50 in the assay on NCI-H226 is > 100 µM (inactive); in the assay on OVCAR-8, > 100 µM (inactive); in the assay on HCT-15, more than 100 µM; in the assay on MOLT-4 it was > 100 µM (inactive); in the assay on RXF 393 it was > 100 µM (inactive); with UACC-62, > 100 µM (inactive). Further, the GI50 in the assay on MCF7, with MDA-MB-231, in the assay with SN12C, with CAKI-1, in the assay with Hs-578T and in the assay on OVCAR-4 was > 100 µM (inactive) throughout. The GI50 in the assay on SK-MEL-2, with A549, with MDA-MB-435, in the assay on NCI-H23, in the assay on UACC-257 and in the assay on MDA-N was > 100 µM (inactive) each time.
Turning to `OCCSCc1cc2c(O)c(c1)Cc1cc(CSCCO)cc(c1O)Cc1cc(CSCCO)cc(c1O)Cc1cc(CSCCO)cc(c1O)C2`, the GI50 with NCI-H226 was 10.4 µM (inactive); with OVCAR-8, 5.09 µM (inactive); in the assay with HCT-15, 8.81 µM; in the assay with MOLT-4, 3.35 µM (inactive); in the assay with SK-MEL-28, 3.56 µM (inactive); with RXF 393, 4.58 µM (inactive). For the same molecule, the GI50 in the assay with MCF7 is 3.91 µM (inactive); in the assay on MDA-MB-231, 2.54 µM (inactive); with SN12C, 4.59 µM (inactive); with CAKI-1, 3.1 µM (inactive); with Hs-578T it was 8.43 µM (inactive); with OVCAR-4 it was 3.61 µM (inactive). Besides, the GI50 with SK-MEL-2 is 2.32 µM (inactive); in the assay on A549, 4.86 µM (inactive); in the assay with MDA-MB-435, 2.83 µM (inactive); with NCI-H23, 5.37 µM (inactive); in the assay on UACC-257, 4.23 µM (inactive); in the assay on SW-620, 3.92 µM (inactive). For the same molecule, the GI50 in the assay with MDA-N is 3.42 µM (inactive).
As for `CC(C)(N)C(=O)N[C@@H]1C(=O)N2[C@@H]1SC(C)(C)[C@@H]2C(=O)O`, the GI50 was > 100 µM (inactive) with NCI-H226; > 100 µM (inactive) with OVCAR-8; more than 100 µM with HCT-15; > 100 µM (inactive) in the assay on SK-MEL-28; > 100 µM (inactive) in the assay on RXF 393; > 100 µM (inactive) with UACC-62. The GI50 with MCF7, in the assay on MDA-MB-231, with SN12C, in the assay on CAKI-1, in the assay on Hs-578T and in the assay on OVCAR-4 was > 100 µM (inactive) throughout. Besides, the GI50 with SK-MEL-2, with A549, in the assay with MDA-MB-435, in the assay with NCI-H23, in the assay on UACC-257 and in the assay with SW-620 was > 100 µM (inactive) in each case. Besides, the GI50 in the assay on MDA-N is > 100 µM (inactive).
